Reference: PMC3672070, “Novel birch pollen specific immunotherapy formulation based on contiguous overlapping peptides” (Clinical and Translational Allergy, 2013)
Like-named read-outs stand apart in the source and are kept apart here. Ends that are not written are not given here.

How the values were obtained:
[1] = tested on: rBet v 1 specific IgE in sera from birch pollen allergic patients; test: Competition ELISA for rBet v 1 specific human IgE; settings: read-out: EC50, inhibition of serum IgE binding to rBet v 1; sera from 6 birch pollen allergic patients (1:5 to 1:10) incubated 1 h with tenfold dilutions of competitor starting at 10^-5 M; rBet v 1 coated plates; '>' = no competitive activity up to this concentration
Protocol: Successively and with washings between steps, plates were incubated 1 h at RT with biotinylated mouse anti-huIgE (Pharmingen, 5 μg/ml, 1 h at RT), Streptavidin-HRP or -alkaline phosphatase (BD, 1:1000 or 1:8000, respectively, 30 min at RT) and TMB (BD OptEIA, ) or 4-NPP. OD were read at 450 nm, 630 nm and 405 nm, respectively. Inhibition of IgE binding to Betv 1 was calculated as: (OD with competitor minus ODmin)/(OD without competitor minus ODmin) × 100, where ODmin was determined in wells without serum.

[2] = tested on: volunteers allergic to birch pollen; test: Skin prick testing of birch pollen sensitive volunteers (AN002 phase I clinical trial); settings: 20 volunteers; for skin prick test positive reactions: even at a 10 μM concentration
Protocol: (§1) The AN002 phase I clinical trial was a single center, open and controlled study conducted at the Centre Hospitalier Universitaire Vaudois (CHUV) in Lausanne. Volunteers (18–45 years) with at least one season history of birch pollen rhinoconjunctivitis or asthma were recruited outside of the birch pollen season. […] The primary objective of the study was to determine the reactogenicity of selected COPs by skin prick tests.
(§2) Individual T1 to T5 COPs, AllerT and T4-T5 mix were evaluated in vivo by skin prick tests following EAACI guidelines [31].

[3] = tested on: volunteers allergic to birch pollen; settings: human, in vivo
Protocol: as §1, §2

RBL-2H3 cells = test: Degranulation assay (beta-hexosaminidase release) on rat basophil line RBL-2H3 loaded with sera from rBet v 1-sensitized mice; format: cell-based
Protocol: Degranulation assay was performed as previously described. RBL-2H3 cells were plated in 96-well tissue culture plates (4×10^4 cells/well) overnight. Passive sensitization of RBL-2H3 cells was carried out with sera from rBet v 1-sensitized mice at a final dilution of 1:30 for 2 h. Unbound antibodies were removed by washing the cell layer twice in Hanks’ balanced salt solution (Sigma-Aldrich, St-Louis, MO, USA). […] The reaction was stopped by addition of 100 μl glycine buffer (0.2M glycine, 0.2M NaCl, pH 10.7) and optical densities (OD) measured at 405 nm.

[4] = tested on: RBL703/21 cells (RBL transfected with human FcϵRI); test: Degranulation assay (beta-hexosaminidase release) on humanised basophil cell line RBL703/21; format: cell-based, rat; settings: RBL703/21 incubated overnight with sera from ten patients (ImmunoCAP classes 4 to 6); 1 h 37°C
Protocol: The assay was adapted from Ladics et al. and Blanc et al.. RBL cells transfected with human FcϵRI (RBL703/21, kind gift of Dr L. Vogel, Paul-Ehrlich Institute, Germany) were plated at 10^5 cells/well in medium (MEM containing glutamine and penicillin/streptomycin) and incubated overnight with sera from subjects with class 4, 5 and 6 IgE levels to birch pollen extract as determined by ImmunoCAP (Phadia, Uppsala, Sweden). Human serum was diluted 1/2 with 4M glucose and incubated for 45 min at 56°C, centrifuged and diluted 1/5 with MEM medium before addition to RBL703/21 cells. […] Supernatants (30 μl) were incubated in duplicates with 50 μl of substrate solution (1.3 mg/ml p-nitrophenyl-b-D-2-acetamido-2-deoxyglucopyranozide from Sigma in 0.1 M citrate pH 4.5) for 1 hour at 37°C. Reaction was stopped by the addition of 100 μl of 0.2 M glycin (pH 10.7). OD was measured at 405 nm (reference filter at 620 nm). β-hexosaminidase release was calculated using the following formula: (OD sample-ODbuffer) / (ODanti-IgE-ODbuffer) × 100.

[5] = dilution 1:1 of the concentration given (COPs and mixes 10 μM, rBet v 1 1 μM, birch 100’000 SQ), EAACI guidelines
[6] = dilution 1:100 of the concentration given
[7] = dilution 1:1 of the concentration given in the row (10 μM)

With “GVFNYETETTSVIPAARLFKAFILDGDNLFPKVAPQAISSVENIEGNGG [T1]” the EC50 [1] was greater than 10 µM, the “Positive skin reactions (≥3 mm wheal and flare present), number of volunteers” value (from here on “Positive skin reactions”) [2, 5] was 0 and the “0 mm <Skin reaction < 3 mm (sub-threshold), number of volunteers” value (“0 mm <Skin reaction < 3 mm” below) ([2]; dilution 1:10) was 0. The “Positive skin reactions” value ([2]; dilution 1:10) was 0, the “0 mm <Skin reaction < 3 mm” value [2, 6] was 0 and the “Positive skin reactions” value [2, 6] was 0. For the same molecule, the “skin prick test positive reactions” value [2] was “unable to elicit skin prick test positive reactions”.

In the case of “GVFNYETETTSVIPAARLFKAFILDGDNLFPKVAPQAISSVENIEGNGGPGTIKKISFPEGFPFKYVKDRVDEVDHTNFKYNYS [T4]”, the EC50 [1] is reported as greater than 10 µM, the “Positive skin reactions” value [2, 5] is reported as 0 and the “0 mm <Skin reaction < 3 mm” value [2, 7] is reported as 0. The “0 mm <Skin reaction < 3 mm” value ([2]; dilution 1:10) was 0, the “Positive skin reactions” value ([2]; dilution 1:10) was 0 and the “0 mm <Skin reaction < 3 mm” value [2, 6] was 1. For the same molecule, the “Positive skin reactions” value [2, 6] was 0.

With “VATPDGGSILKISNKYHTKGDHEVKAEQVKASKEMGETLLRAVESYLLAHSDAYN [T3]” the EC50 [1] was greater than 10 µM and the “Positive skin reactions” value [3] was 0.

In the case of “NGGPGTIKKISFPEGFPFKYVKDRVDEVDHTNFKYNYSVIEGGPIGDTLEKISNEIKIVATPDGGSILKIS [T2]”, the EC50 [1] is reported as greater than 10 µM, the “Positive skin reactions” value [2, 5] is reported as 0 and the “0 mm <Skin reaction < 3 mm” value [2, 7] is reported as 0. The “0 mm <Skin reaction < 3 mm” value ([2]; dilution 1:10) was 0, the “Positive skin reactions” value ([2]; dilution 1:10) was 0 and the “0 mm <Skin reaction < 3 mm” value [2, 6] was 0. The “Positive skin reactions” value [2, 6] was 0 and the “skin prick test positive reactions” value [2] was “unable to elicit skin prick test positive reactions”.

B1: rBet v 1: recombinant major birch pollen allergen Bet v 1 (BIOMAY, Vienna, Austria) (protein, UniProt P15494 2-160, looked up)
Major pollen allergen Bet v …: GVFNYETETTSVIPAARLFKAFILDGDNLFPKVAPQAISSVENIEGNGGPGTIKKISFPEGFPFKYVKDRVDEVDHTNFKYNYSVIEGGPIGDTLEKISNEIKIVATPDGGSILKISNKYHTKGDHEVKAEQVKASKEMGETLLRAVESYLLAHSDAYN
With B1 the “optimal rBet v 1 concentration for hexosaminidase release” value (RBL-2H3 cells; RBL-2H3 loaded with sera from rBet v 1-sensitized mice, serial concentrations) was 0.57 nM, the hexosaminidase release (RBL-2H3 cells; RBL-2H3 primed with sera from Bet v 1-sensitized mice (1:30), stimulation 1 h 37°C, COPs and AllerT at 5.7 nM (n=10) and 57 nM (n=3), OD 405 nm) was “accumulated significantly” and the “dose at which maximal degranulation response was reached” value [4] was 10^-9 M. The “positive skin prick reactions, share of patients” value ([2]; allergen concentration lowered by 10 fold (birch 10’000 SQ, rBet v 1 0.1 μM)) was 80%, the “Positive skin reactions” value ([2]; dilution 1:10) was 16 and the “Positive skin reactions” value [2, 6] was 2.

B2: T5: Bet v 1-derived synthetic contiguous overlapping peptide, aa 65-160 (peptide, UniProt P15494 65-160, looked up, fragment)
chain: FKYVKDRVDEVDHTNFKYNYSVIEGGPIGDTLEKISNEIKIVATPDGGSILKISNKYHTKGDHEVKAEQVKASKEMGETLLRAVESYLLAHSDAYN
For B2, the EC50 [1] was greater than 10 µM, the “Positive skin reactions” value [2, 5] was 0 and the “0 mm <Skin reaction < 3 mm” value ([2]; dilution 1:10) was 0. For the same molecule, the “Positive skin reactions” value ([2]; dilution 1:10) was 0, the “0 mm <Skin reaction < 3 mm” value [2, 6] was 0 and the “Positive skin reactions” value [2, 6] was 0.
